What all share (experiment): cell-based
Common to all, as to type: cell-based

In assay [1] the target is hNav1.6 (Homo sapiens, UniProt Q9UQD0). The following applies: Table 15; for Nav1.6/Nav1.7: ratio of PX tonic IC50 values; for pIC50: read-out: PX hNav1.6 Tonic IC50.
Assay [2] addresses hNav1.7 (Homo sapiens, UniProt Q15858). As to conditions: PatchXpress, read-out: PX hNav1.7 Tonic IC50.
The target of assay [3] is hNav1.4 (Homo sapiens, UniProt P35499). As to conditions: Table 12; for pIC50: PatchXpress, tonic block, read-out: PX hNav1.4 Tonic IC50; for Nav1.4/Nav1.7: ratio of PX tonic IC50 values.
Sequence of hNav1.4 (P35499 whole entry): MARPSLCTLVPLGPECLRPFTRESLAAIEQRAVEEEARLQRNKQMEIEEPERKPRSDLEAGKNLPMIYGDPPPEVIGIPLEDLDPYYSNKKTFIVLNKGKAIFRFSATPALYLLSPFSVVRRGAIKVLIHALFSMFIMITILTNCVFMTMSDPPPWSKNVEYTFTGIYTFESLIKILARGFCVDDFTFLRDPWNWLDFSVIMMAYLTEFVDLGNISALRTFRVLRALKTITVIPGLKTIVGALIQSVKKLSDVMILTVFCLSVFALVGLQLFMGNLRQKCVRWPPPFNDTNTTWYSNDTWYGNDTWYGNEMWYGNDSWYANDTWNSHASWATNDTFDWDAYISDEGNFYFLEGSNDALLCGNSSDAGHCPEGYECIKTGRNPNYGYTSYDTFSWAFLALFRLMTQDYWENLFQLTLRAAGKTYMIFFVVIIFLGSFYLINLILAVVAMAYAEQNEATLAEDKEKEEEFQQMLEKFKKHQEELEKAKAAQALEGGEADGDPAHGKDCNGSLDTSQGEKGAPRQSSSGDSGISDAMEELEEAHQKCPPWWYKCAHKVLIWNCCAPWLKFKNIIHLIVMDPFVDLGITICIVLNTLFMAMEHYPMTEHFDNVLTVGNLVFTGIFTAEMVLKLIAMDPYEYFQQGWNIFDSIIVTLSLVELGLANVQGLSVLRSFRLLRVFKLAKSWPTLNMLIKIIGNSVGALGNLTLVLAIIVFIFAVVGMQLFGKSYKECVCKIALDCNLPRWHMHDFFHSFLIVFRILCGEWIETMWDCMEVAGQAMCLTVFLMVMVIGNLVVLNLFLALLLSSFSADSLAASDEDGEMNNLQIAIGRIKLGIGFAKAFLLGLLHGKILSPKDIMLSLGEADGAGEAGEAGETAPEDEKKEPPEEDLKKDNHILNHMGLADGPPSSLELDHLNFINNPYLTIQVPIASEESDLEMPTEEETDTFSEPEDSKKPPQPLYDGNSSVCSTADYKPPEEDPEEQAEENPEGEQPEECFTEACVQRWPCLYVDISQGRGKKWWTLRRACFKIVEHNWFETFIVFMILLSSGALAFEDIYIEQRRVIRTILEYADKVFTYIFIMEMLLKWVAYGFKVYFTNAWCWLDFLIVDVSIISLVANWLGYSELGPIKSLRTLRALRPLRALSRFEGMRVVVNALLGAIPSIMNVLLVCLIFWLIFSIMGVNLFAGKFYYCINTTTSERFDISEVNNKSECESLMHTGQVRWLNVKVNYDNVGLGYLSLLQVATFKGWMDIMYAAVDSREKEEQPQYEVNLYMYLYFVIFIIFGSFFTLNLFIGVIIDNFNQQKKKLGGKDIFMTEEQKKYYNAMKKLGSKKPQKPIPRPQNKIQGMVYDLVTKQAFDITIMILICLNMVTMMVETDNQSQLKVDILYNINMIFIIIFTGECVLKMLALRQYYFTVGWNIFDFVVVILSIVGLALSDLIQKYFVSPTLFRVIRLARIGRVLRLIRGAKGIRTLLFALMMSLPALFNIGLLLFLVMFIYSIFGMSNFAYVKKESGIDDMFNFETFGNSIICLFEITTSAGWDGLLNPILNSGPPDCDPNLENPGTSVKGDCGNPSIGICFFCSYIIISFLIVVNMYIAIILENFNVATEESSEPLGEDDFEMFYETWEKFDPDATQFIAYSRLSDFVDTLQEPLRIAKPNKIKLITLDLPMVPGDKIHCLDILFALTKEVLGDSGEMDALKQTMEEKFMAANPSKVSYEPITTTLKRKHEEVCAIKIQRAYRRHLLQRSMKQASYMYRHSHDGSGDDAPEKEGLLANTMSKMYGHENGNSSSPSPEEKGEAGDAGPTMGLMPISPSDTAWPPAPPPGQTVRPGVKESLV

Structures are written as SMILES. pIC50: −log10 of the molar value. Where two headings read alike, the source gives them in different places. A value given as a limit tells only on which side of the number the result lay.

Sequence of hNav1.6 (Q9UQD0 whole entry): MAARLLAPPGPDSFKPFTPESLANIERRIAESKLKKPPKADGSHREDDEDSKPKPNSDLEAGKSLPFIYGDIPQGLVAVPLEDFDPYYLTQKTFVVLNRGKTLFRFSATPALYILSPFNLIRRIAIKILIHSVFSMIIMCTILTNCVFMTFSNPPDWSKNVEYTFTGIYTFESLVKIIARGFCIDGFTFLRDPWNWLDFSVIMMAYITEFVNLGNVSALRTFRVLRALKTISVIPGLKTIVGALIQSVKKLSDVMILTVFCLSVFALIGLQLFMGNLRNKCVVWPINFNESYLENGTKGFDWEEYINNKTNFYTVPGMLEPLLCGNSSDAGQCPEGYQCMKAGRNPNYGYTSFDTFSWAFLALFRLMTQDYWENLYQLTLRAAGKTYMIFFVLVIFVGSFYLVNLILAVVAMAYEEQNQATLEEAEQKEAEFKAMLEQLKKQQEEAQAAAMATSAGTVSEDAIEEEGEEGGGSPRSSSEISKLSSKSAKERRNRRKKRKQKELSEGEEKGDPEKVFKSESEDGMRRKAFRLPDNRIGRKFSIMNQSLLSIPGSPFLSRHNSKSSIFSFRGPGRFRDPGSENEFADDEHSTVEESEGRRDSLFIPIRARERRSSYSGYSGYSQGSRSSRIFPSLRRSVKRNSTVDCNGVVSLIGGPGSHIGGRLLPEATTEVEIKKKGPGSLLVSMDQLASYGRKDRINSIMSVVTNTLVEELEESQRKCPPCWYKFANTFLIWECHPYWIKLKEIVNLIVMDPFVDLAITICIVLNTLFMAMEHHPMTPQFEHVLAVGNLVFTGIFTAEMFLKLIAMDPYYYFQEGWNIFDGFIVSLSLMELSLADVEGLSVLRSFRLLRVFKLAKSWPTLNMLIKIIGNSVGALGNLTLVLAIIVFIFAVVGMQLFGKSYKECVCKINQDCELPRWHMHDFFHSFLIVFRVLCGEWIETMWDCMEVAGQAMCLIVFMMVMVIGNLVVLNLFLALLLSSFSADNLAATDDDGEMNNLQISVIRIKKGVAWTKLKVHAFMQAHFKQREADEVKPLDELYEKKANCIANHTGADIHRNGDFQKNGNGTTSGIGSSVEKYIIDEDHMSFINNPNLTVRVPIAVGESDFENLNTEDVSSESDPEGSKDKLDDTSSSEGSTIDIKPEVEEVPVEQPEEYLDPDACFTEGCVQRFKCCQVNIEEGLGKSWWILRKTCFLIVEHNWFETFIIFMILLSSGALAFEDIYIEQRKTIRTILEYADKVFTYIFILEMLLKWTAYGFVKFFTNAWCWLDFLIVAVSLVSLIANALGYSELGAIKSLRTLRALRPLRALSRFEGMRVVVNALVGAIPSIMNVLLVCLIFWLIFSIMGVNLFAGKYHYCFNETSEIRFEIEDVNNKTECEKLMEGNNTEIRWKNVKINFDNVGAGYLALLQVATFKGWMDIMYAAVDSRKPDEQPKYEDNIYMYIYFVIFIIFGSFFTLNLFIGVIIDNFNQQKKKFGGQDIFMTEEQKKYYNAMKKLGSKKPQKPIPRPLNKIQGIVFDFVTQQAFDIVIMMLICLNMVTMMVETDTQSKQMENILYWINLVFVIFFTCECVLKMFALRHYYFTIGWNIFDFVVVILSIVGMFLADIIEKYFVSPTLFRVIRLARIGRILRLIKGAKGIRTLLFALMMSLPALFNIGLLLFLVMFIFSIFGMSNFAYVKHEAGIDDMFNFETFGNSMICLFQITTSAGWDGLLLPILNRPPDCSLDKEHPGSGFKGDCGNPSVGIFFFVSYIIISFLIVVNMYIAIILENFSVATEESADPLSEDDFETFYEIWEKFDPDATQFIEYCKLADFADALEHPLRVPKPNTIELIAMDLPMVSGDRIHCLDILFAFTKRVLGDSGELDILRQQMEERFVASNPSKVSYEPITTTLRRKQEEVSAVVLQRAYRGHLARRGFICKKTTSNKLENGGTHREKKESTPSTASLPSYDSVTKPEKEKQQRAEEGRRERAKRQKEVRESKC

On to `CC[C@H](C)[C@H](NC(=O)[C@@H](NC(=O)[C@H](CCCCN)NC(=O)[C@H](CCCNC(=N)N)NC(=O)[C@@H]1CSSC[C@@H]2NC(=O)[C@H](C)NC(=O)[C@H](CCCNC(=N)N)NC(=O)[C@H](CCCCN)NC(=O)[C@H](CO)NC(=O)[C@H](CC(=O)O)NC(=O)[C@@H]3CSSC[C@H](NC(=O)[C@H](CCCNC(=N)N)NC(=O)[C@H](CC(C)C)NC(=O)CNC(=O)[C@H](CCC(=O)O)NC(=O)[C@H](CSSC[C@H](NC(=O)[C@@H](N)Cc4ccc(O)cc4)C(=O)N[C@@H](CCC(N)=O)C(=O)N[C@@H](CCC(=O)O)C(=O)N[C@@H](Cc4c[nH]c5ccccc45)C(=O)N[C@@H](CCSC)C(=O)N[C@@H](Cc4c[nH]c5ccccc45)C(=O)N[C@@H]([C@@H](C)O)C(=O)N3)NC2=O)C(=O)N[C@@H](CCCCN)C(=O)N[C@@H](CC(C)C)C(=O)N[C@@H](Cc2c[nH]c3ccccc23)C(=O)N1)[C@@H](C)CC)C(N)=O` [compound 51], for which, in assay [1], the Nav1.6/Nav1.7 was >12 and the pIC50 was < 5.00. Further, in assay [2] (tonic, Table 11), the negative logarithm of the IC50 (pIC50) was 6.07.

For `C#CC[C@H](NC(=O)[C@@H](N)CCC(=O)O)C(=O)N[C@@H](Cc1ccc(O)cc1)C(=O)N[C@H]1CSSC[C@@H]2NC(=O)[C@@H]3CSSC[C@@H](C(=O)N[C@@H](CCCNC(=N)N)C(=O)N[C@@H](CCCCN)C(=O)N[C@@H](CCC(=O)O)C(=O)N[C@H](C(N)=O)[C@@H](C)CC)NC(=O)[C@H](Cc4c[nH]c5ccccc45)NC(=O)[C@H](CC(C)C)NC(=O)[C@H](CCCCN)NC(=O)[C@H](CSSC[C@H](NC(=O)[C@H]([C@@H](C)O)NC(=O)[C@H](Cc4c[nH]c5ccccc45)NC(=O)[C@H](CCCC)NC(=O)[C@H](Cc4c[nH]c5ccccc45)NC(=O)[C@H](CCCCN)NC(=O)[C@H](CCC(N)=O)NC1=O)C(=O)N[C@@H](CC(=O)O)C(=O)N[C@@H](CO)C(=O)N[C@@H](CCCCN)C(=O)N[C@@H](CCCNC(=N)N)C(=O)N[C@@H](C)C(=O)N3)NC(=O)[C@H](CCCNC(=N)N)NC(=O)[C@H](CC(C)C)NC(=O)CNC(=O)[C@H](CCC(=O)O)NC2=O` [compound 707], the Nav1.6/Nav1.7 in assay [1] was 236. In addition, the pIC50 in assay [1] is 6.76; in assay [3], 6.95; in assay [2] (Table 12, tonic block), 9.13. For the same compound, the Nav1.4/Nav1.7 in assay [3] was found to be 152.

`C#CC[C@H](N)C(=O)N[C@@H](Cc1ccc(O)cc1)C(=O)N[C@H]1CSSC[C@@H]2NC(=O)[C@@H]3CSSC[C@@H](C(=O)N[C@@H](CCCNC(=N)N)C(=O)N[C@@H](CCCCN)C(=O)N[C@@H](CCC(=O)O)C(=O)N[C@H](C(N)=O)[C@@H](C)CC)NC(=O)[C@H](Cc4c[nH]c5ccccc45)NC(=O)[C@H](CC(C)C)NC(=O)[C@H](CCCCN)NC(=O)[C@H](CSSC[C@H](NC(=O)[C@H](CCC(=O)O)NC(=O)[C@H](Cc4c[nH]c5ccccc45)NC(=O)[C@H](CCCC)NC(=O)[C@H](Cc4c[nH]c5ccccc45)NC(=O)[C@H](CCCCN)NC(=O)[C@H](CCC(N)=O)NC1=O)C(=O)N[C@@H](CC(=O)O)C(=O)N[C@@H](CO)C(=O)N[C@@H](CCCCN)C(=O)N[C@@H](CCCNC(=N)N)C(=O)N[C@@H](C)C(=O)N3)NC(=O)[C@H](CCCNC(=N)N)NC(=O)[C@H](CC(C)C)NC(=O)CNC(=O)[C@H](CCC(=O)O)NC2=O` [compound 712]: in assay [1], the Nav1.6/Nav1.7 amounted to 395 and the pIC50 is 5.19. Further, in assay [3], the pIC50 is 5.80 and the Nav1.4/Nav1.7 is 97. The pIC50 in assay [2] (Table 12, tonic block) is 7.79.

For the compound `C#CC[C@H](N)C(=O)N[C@@H](Cc1ccc(O)cc1)C(=O)N[C@H]1CSSC[C@@H]2NC(=O)[C@@H]3CSSC[C@@H](C(=O)N[C@@H](CCCNC(=N)N)C(=O)N[C@@H](CCCCN)C(=O)N[C@@H](CCC(=O)O)C(=O)N[C@H](C(N)=O)[C@@H](C)CC)NC(=O)[C@H](Cc4c[nH]c5ccccc45)NC(=O)[C@H](CC(C)C)NC(=O)[C@H](CCCCN)NC(=O)[C@H](CSSC[C@H](NC(=O)[C@H]([C@@H](C)O)NC(=O)[C@H](Cc4c[nH]c5ccccc45)NC(=O)[C@H](CCCC)NC(=O)[C@H](Cc4c[nH]c5ccccc45)NC(=O)[C@H](CCCCN)NC(=O)[C@H](CCC(N)=O)NC1=O)C(=O)N[C@@H](CC(=O)O)C(=O)N[C@@H](CO)C(=O)N[C@@H](CCCCN)C(=O)N[C@@H](CCCNC(=N)N)C(=O)N[C@@H](C)C(=O)N3)NC(=O)[C@H](CCCNC(=N)N)NC(=O)[C@H](CC(C)C)NC(=O)CNC(=O)[C@H](CCCCN)NC2=O` [compound 718], the Nav1.6/Nav1.7 in assay [1] was 104. Further, the pIC50 in assay [1] is 6.83; in assay [3], 7.47; in assay [2] (Table 12, tonic block), 8.85. In addition, the Nav1.4/Nav1.7 in assay [3] is given as 24.

On to `C#CC[C@H](N)C(=O)N[C@@H](Cc1ccc(O)cc1)C(=O)N[C@H]1CSSC[C@@H]2NC(=O)[C@@H]3CSSC[C@@H](C(=O)N[C@@H](CCCNC(=N)N)C(=O)N[C@@H](CCCCN)C(=O)N[C@@H](CCC(=O)O)C(=O)N[C@H](C(N)=O)[C@@H](C)CC)NC(=O)[C@H](Cc4c[nH]c5ccccc45)NC(=O)[C@H](CC(C)C)NC(=O)[C@H](CCC(=O)O)NC(=O)[C@H](CSSC[C@H](NC(=O)[C@H]([C@@H](C)O)NC(=O)[C@H](Cc4c[nH]c5ccccc45)NC(=O)[C@H](CCCC)NC(=O)[C@H](Cc4c[nH]c5ccccc45)NC(=O)[C@H](CCCCN)NC(=O)[C@H](CCC(N)=O)NC1=O)C(=O)N[C@@H](CC(=O)O)C(=O)N[C@@H](CO)C(=O)N[C@@H](CCCCN)C(=O)N[C@@H](CCCNC(=N)N)C(=O)N[C@@H](C)C(=O)N3)NC(=O)[C@H](CCCNC(=N)N)NC(=O)[C@H](CC(C)C)NC(=O)CNC(=O)[C@H](CCC(=O)O)NC2=O` [compound 722], for which the Nav1.6/Nav1.7 in assay [1] is listed as >442. In addition, the Nav1.4/Nav1.7 in assay [3] is on record as >442.

As for `C#CC[C@H](N)C(=O)N[C@@H](Cc1ccc(O)cc1)C(=O)N[C@H]1CSSC[C@@H]2NC(=O)[C@@H]3CSSC[C@@H](C(=O)N[C@@H](CCCNC(=N)N)C(=O)N[C@@H](CCCCN)C(=O)N[C@@H](CCC(=O)O)C(=O)N[C@H](C(N)=O)[C@@H](C)CC)NC(=O)[C@H](Cc4c[nH]c5ccccc45)NC(=O)[C@H](CC(C)C)NC(=O)[C@H](CCCCN)NC(=O)[C@H](CSSC[C@H](NC(=O)[C@H]([C@@H](C)O)NC(=O)[C@H](Cc4c[nH]c5ccccc45)NC(=O)[C@H](CCCC)NC(=O)[C@H](Cc4c[nH]c5ccccc45)NC(=O)[C@H](CCCCN)NC(=O)[C@H](CCC(N)=O)NC1=O)C(=O)N[C@@H](CC(=O)O)C(=O)N[C@@H](CO)C(=O)N[C@@H](CCCCN)C(=O)N[C@@H](CCCNC(=N)N)C(=O)N[C@@H](C)C(=O)N3)NC(=O)[C@H](C)NC(=O)[C@H](CC(C)C)NC(=O)CNC(=O)[C@H](CCC(=O)O)NC2=O` [compound 727], in assay [1], the Nav1.6/Nav1.7 was >11. In addition, the pIC50 was < 5.00 in assay [1] and 6.04 in assay [2] (Table 12, tonic block).
